Experimental data reported in the supplement of paper PMC10307832.

Tests used:
Assay in all cases: relative viability (nuclei count vs DMSO), 5 days (fraction); higher = more cells survive
Axitinib + Pictilisib = compound: CNC(=O)c1ccccc1Sc1ccc2c(/C=C/c3ccccn3)n[nH]c2c1 [Axitinib] + CS(=O)(=O)N1CCN(Cc2cc3nc(-c4cccc5[nH]ncc45)nc(N4CCOCC4)c3s2)CC1 [Pictilisib] (partner 1 µM)
Method in brief: (§1)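 Lung cancer cell lines in 1536-well plates got either a single drug or a fixed anchor-drug dose together with five library-drug doses (not always all listed) in √10 steps, by pin tool, on the day after seeding. Nuclei were counted after 5 days, and relative viability is the treated-to-vehicle ratio of nuclei counts. Values are medians of duplicate plates.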

[1] = compound: CC1=CC=C(C=C1)C(=O)CN2C3=C(CCCC3)SC2=N [Pifithrin_alpha] + O=C(c1cc(Cc2n[nH]c(=O)c3ccccc23)ccc1F)N1CCN(C(=O)C2CC2)CC1 [Olaparib] (partner 8 µM)
Method in brief: as §1

Axitinib + Dasatinib = compound: CNC(=O)c1ccccc1Sc1ccc2c(/C=C/c3ccccn3)n[nH]c2c1 [Axitinib] + Cc1nc(Nc2ncc(C(=O)Nc3c(C)cccc3Cl)s2)cc(N2CCN(CCO)CC2)n1 [Dasatinib] (partner 0.075 µM)
Method in brief: as §1

Axitinib + AZD7762 = compound: CNC(=O)c1ccccc1Sc1ccc2c(/C=C/c3ccccn3)n[nH]c2c1 [Axitinib] + NC(=O)Nc1cc(-c2cccc(F)c2)sc1C(=O)N[C@H]1CCCNC1 [AZD7762] (partner 0.2 µM)
Method in brief: as §1

Cell Line | relative viability (Axitinib + Pictilisib; first compound 0.005 µM) | relative viability (Axitinib + Pictilisib; first compound 0.01581 µM) | relative viability (Axitinib + Pictilisib; first compound 0.05 µM) | relative viability (Axitinib + Pictilisib; first compound 0.1581 µM) | relative viability (Axitinib + Pictilisib; first compound 0.5 µM) | relative viability ([1]; first compound 1 µM) | relative viability ([1]; first compound 3.162 µM) | relative viability ([1]; first compound 10 µM) | relative viability ([1]; first compound 31.62 µM) | relative viability ([1]; first compound 100 µM) | relative viability (Axitinib + Dasatinib; first compound 0.005 µM) | relative viability (Axitinib + Dasatinib; first compound 0.01581 µM) | relative viability (Axitinib + Dasatinib; first compound 0.05 µM) | relative viability (Axitinib + Dasatinib; first compound 0.1581 µM) | relative viability (Axitinib + Dasatinib; first compound 0.5 µM) | relative viability (Axitinib + AZD7762; first compound 0.005 µM) | relative viability (Axitinib + AZD7762; first compound 0.01581 µM) | relative viability (Axitinib + AZD7762; first compound 0.05 µM) | relative viability (Axitinib + AZD7762; first compound 0.1581 µM) | relative viability (Axitinib + AZD7762; first compound 0.5 µM)
NCI-H2087 | 0.982 | 0.848 | 0.992 | 0.856 | 0.769 | 0.617 | 0.614 | 0.524 | 0.236 | 0.469 | 0.852 | 1.01 | 0.908 | 0.837 | 0.861 | 1.37 | 1.42 | 1.47 | 1.25 | 1.43
NCI-H2126 | 0.457 | 0.475 | 0.504 | 0.522 | 0.499 | 0.91 | 1.01 | 0.924 | 0.691 | 0.927 | 0.625 | 0.635 | 0.64 | 0.565 | 0.578 | 0.936 | 0.997 | 0.996 | 0.97 | 1.01
NCI-H2170 | 0.316 | 0.268 | 0.327 | 0.305 | 0.259 | 0.657 | 0.593 | 0.541 | 0.309 | 0.551 | 0.606 | 0.579 | 0.64 | 0.582 | 0.522 | 1.13 | 0.958 | 0.948 | 0.792 | 0.87
NCI-H2347 | 0.605 | 0.584 | 0.876 | 0.855 | 0.783 | 0.603 | 0.573 | 0.587 | 0.541 | 0.547 | 0.304 | 0.324 | 0.288 | 0.308 | 0.323 | 0.828 | 0.763 | 0.792 | 0.723 | 0.873
NCI-H2405 | 0.422 | 0.534 | 0.658 | 0.465 | 0.383 |  | 0.775 | 0.725 | 0.51 | 0.644 | 0.203 | 0.202 | 0.232 | 0.214 | 0.199 | 0.73 | 0.808 | 1.01 | 0.684 | 0.856
NCI-H3122 | 0.579 | 0.592 | 0.627 | 0.594 | 0.598 | 0.635 | 0.48 | 0.511 | 0.291 | 0.389 | 0.881 | 0.819 | 0.895 | 0.724 | 0.735 | 0.976 | 0.991 | 0.892 | 0.92 | 1.04
PC-3 [JPC-3] | 0.729 |  | 0.672 | 0.715 | 0.853 |  | 1.11 |  | 0.564 | 0.764 | 1.07 | 1.01 | 1.02 | 1 | 1.01 | 0.835 |  | 0.933 | 0.765 | 0.781
PC-14 | 0.919 | 0.699 | 0.676 | 0.731 | 0.834 | 0.253 | 0.319 | 0.218 | 0.188 | 0.111 | 0.247 | 0.227 | 0.297 | 0.257 | 0.314 | 0.306 |  | 0.346 | 0.382 | 0.413
RERF-LC-KJ | 0.583 | 0.654 | 0.544 | 0.603 | 0.51 | 0.779 | 0.4 | 0.215 | 0.178 | 0.175 | 0.853 | 0.898 | 0.998 | 0.822 | 0.904 | 1 | 0.916 | 1.21 | 0.977 | 1.01
